# Reference: article PMC8708252, “Silymarin Dehydroflavonolignans Chelate Zinc and Partially Inhibit Alcohol Dehydrogenase” (Nutrients, 2021)
# How the values were obtained:
# Type in all cases: biochemical
# [1] = biological target: T1, equine alcohol dehydrogenase (ADH) (Equus caballus, UniProt P00327); experiment: NADH absorbance ([…] nm) ethanol oxidation assay with recombinant enzyme
# T1 construct: recombinant equine ADH
# [2] = biological target: T1, equine alcohol dehydrogenase (ADH); experiment: as above; remark: listed apart in the source
# [3] = biological target: T2, yeast alcohol dehydrogenase (ADH) (Saccharomyces cerevisiae, UniProt P00330); experiment: NADH absorbance ([…] nm) ethanol oxidation assay with isolated enzyme
# T2 construct: gene ADH1
# T2 sequence (P00330 2-348): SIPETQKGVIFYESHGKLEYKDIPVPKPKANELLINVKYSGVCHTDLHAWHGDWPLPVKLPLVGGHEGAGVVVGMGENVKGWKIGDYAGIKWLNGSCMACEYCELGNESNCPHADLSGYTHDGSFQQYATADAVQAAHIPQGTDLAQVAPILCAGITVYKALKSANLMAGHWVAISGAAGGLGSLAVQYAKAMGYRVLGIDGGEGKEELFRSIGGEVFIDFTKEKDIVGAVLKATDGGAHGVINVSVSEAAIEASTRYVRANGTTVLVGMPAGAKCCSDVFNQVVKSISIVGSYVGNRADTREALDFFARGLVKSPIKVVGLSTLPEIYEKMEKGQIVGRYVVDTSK
# [4] = biological target: T3, bovine glutamate dehydrogenase type I (GDH) (Bos taurus, UniProt P00366); experiment: NADH absorbance ([…] nm) assay with and without […] zinc
# T3 construct: gene GLUD1
# [5] = biological target: T1, equine alcohol dehydrogenase (ADH); experiment: NADH absorbance ([…] nm) ethanol oxidation assay with recombinant enzyme; remark: listed apart in the source
# T1 sequence (P00327 2-375): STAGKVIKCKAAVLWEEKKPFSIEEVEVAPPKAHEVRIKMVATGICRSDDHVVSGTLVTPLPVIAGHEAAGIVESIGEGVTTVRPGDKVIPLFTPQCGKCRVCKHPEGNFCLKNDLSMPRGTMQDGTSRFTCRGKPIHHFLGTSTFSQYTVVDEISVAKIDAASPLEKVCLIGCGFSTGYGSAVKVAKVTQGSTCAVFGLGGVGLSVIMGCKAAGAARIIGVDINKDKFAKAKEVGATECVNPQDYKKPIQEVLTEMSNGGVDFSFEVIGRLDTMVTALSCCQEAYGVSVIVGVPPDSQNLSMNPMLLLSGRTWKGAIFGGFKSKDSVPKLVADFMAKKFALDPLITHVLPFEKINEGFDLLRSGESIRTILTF
# T3 sequence (P00366 58-558): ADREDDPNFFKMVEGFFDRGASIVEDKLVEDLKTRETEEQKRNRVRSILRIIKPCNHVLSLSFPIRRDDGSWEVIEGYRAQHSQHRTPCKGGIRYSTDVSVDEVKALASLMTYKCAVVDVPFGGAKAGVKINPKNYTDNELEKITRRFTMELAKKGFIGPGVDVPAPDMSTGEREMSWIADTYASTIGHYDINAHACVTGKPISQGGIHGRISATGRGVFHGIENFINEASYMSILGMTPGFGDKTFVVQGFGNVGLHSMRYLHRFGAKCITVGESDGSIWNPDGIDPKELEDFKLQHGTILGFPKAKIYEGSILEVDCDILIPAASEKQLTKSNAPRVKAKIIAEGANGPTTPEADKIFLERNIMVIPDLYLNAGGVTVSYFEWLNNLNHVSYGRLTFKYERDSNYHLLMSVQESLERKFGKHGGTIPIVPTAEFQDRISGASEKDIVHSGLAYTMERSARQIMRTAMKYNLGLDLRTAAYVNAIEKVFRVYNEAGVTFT
smiles,measurement,setting,value
"COc1cc([C@H]2Oc3cc(-c4oc5cc(O)cc(O)c5c(=O)c4O)ccc3O[C@@H]2CO)ccc1O [DHS-A, 2,3-dehydrosilybin A]",inhibition at 10 µM,[1],~20%
Cc1cn[nH]c1 [fomepizole],IC50,[2],0.00525 mM
same,IC50,[3],14 mM
"COc1cc(C2Oc3cc(-c4oc5cc(O)cc(O)c5c(=O)c4O)ccc3OC2CO)ccc1O (racemic) [DHS, 2,3-dehydrosilybin]",NADH absorbance (340 nm) assay with and without 150 μM zinc,[4],they were particularly potent inhibitors of the enzyme itself
"COc1cc([C@@H]2Oc3cc(-c4oc5cc(O)cc(O)c5c(=O)c4O)ccc3O[C@H]2CO)ccc1O [DHS-B, 2,3-dehydrosilybin B]",NADH absorbance (340 nm) ethanol oxidation assay with recombinant enzyme,[5],Inhibition of equine ADH by active flavonolignans
